Among the data in article PMC10532523, “Rifamycin-Related Polyketides from a Marine-Derived Bacterium Salinispora arenicola and Their Cytotoxic Activity” (Marine Drugs, 2023) are GI50 values, retold here.

Holding throughout (format): cell-based
In one assay the test system is ACHN. In words: Cytotoxicity, SRB assay, ACHN (renal). Conditions: Homo sapiens; ACHN (renal) cells; read-out: Growth inhibition GI50. How it is done: (§1) The cytotoxic activities of 1 and 6–8 against adherent cells and suspension cells were conducted by SRB (sulforhodamine B) assay and CellTiter-Glo assay, respectively, as described earlier. The compounds were dissolved and serially diluted in dimethyl sulfoxide. GraphPad Prism 8 (GraphPad Software Inc., San Diego, CA, USA) was used to determine GI50 values. Cancer and normal cell lines were purchased from the Japanese Cancer Research Resources Bank (JCRB) (NUGC-3, JCRB Cell Bank/Cat. # JCRB0822), the DSMZ-German Collection of Microorganisms and Cell Cultures (RPMI-8402, DSMZ/Cat # ACC 290; WSU-DLCL2, DSMZ/Cat # ACC 575), and the American Type Culture Collection (ATCC) (PC-3, ATCC/Cat. # CRL-1435; MDA-MB-231, ATCC/Cat. # HTB-26; ACHN, ATCC/Cat. # CRL-1611; NCI-H23, ATCC/Cat. # CRL-5800; HCT-15, ATCC/Cat. # CCL-225; HL-60, ATCC/Cat. # CCL-240; Raji, ATCC/Cat # CCL-86; K562, ATCC/Cat # CCL-243; NALM6, ATCC/Cat # CRL-3273; U266, ATCC/Cat # TIB-196); RPMI-1788, ATCC/Cat # TIB-156). Cells were cultured in Dulbecco’s Modified Eagles medium (ACHN, MDA-MB-231), RPMI-1640 medium (HCT-15, PC-3, NUGC-3, NCI-H23, Raji, NALM6, U266, WSU-DLCL2, RPMI-1788) or Improved Minimum Essential Medium (K562, HL-60), supplemented with fetal bovine serum and penicillin-streptomycin.
A general note: The SRB assay estimates cell density from bound dye.

In a further assay the test system is MDA-MB-231. In words: Cytotoxicity, SRB assay, MDA-MB-231 (breast). As to conditions: Homo sapiens; MDA-MB-231 (breast) cells; read-out: Growth inhibition GI50. How it is done: as §1
For a further assay, the system named is HCT-15. Kind of assay: Cytotoxicity, SRB assay, HCT-15 (colon). Conditions: Homo sapiens; HCT-15 (colon) cells; read-out: Growth inhibition GI50. How it is done:
as §1

For a further assay, the system named is PC-3. In words: Cytotoxicity, SRB assay, PC-3 (prostate). As to conditions: Homo sapiens; PC-3 (prostate) cells; read-out: Growth inhibition GI50. How it is done:
as §1

The next assay deals with NUGC-3. Kind of assay: Cytotoxicity, SRB assay, NUGC-3 (stomach). Conditions: Homo sapiens; NUGC-3 (stomach) cells; read-out: Growth inhibition GI50. How it is done: as §1
The subject of another assay is NCI-H23. In words: Cytotoxicity, SRB assay, NCI-H23 (lung). Conditions: Homo sapiens; NCI-H23 (lung) cells; read-out: Growth inhibition GI50. How it is done: as §1
For another assay, the system named is HL-60. Kind of assay: Cytotoxicity, CellTiter-Glo assay, HL-60 (AML). Conditions: Homo sapiens; HL-60 (acute myelogenous leukemia) cells; read-out: Growth inhibition GI50. How it is done: as §1
In general terms: Cellular ATP, detected with luciferase, serves as a proxy for viable cell number.

In the next assay the test system is Raji. Kind of assay: Cytotoxicity, CellTiter-Glo assay, Raji (Burkitt's lymphoma). Conditions: Homo sapiens; Raji (Burkitt's lymphoma) cells; read-out: Growth inhibition GI50. How it is done: as §1
A further assay concerns K562. In words: Cytotoxicity, CellTiter-Glo assay, K562 (CML). As to conditions: Homo sapiens; K562 (chronic myelogenous leukemia) cells; read-out: Growth inhibition GI50. How it is done:
as §1

The test system of another assay is RPMI-8402. Kind of assay: Cytotoxicity, CellTiter-Glo assay, RPMI-8402 (T-ALL). Conditions: Homo sapiens; RPMI-8402 (T cell acute lymphocytic leukemia) cells; read-out: Growth inhibition GI50. How it is done: as §1
A further assay relates to NALM6. In words: Cytotoxicity, CellTiter-Glo assay, NALM6 (B-ALL). Conditions: Homo sapiens, NALM-6; NALM6 (B cell acute lymphocytic leukemia) cells; read-out: Growth inhibition GI50. How it is done:
as §1

The test system of the next assay is U266. In words: Cytotoxicity, CellTiter-Glo assay, U266 (multiple myeloma). As to conditions: Homo sapiens, U-266; U266 (multiple myeloma) cells; read-out: Growth inhibition GI50. How it is done: as §1
The next assay deals with WSU-DLCL2. Kind of assay: Cytotoxicity, CellTiter-Glo assay, WSU-DLCL2 (DLBCL). Conditions: Homo sapiens, WSUDLCL2; WSU-DLCL2 (diffuse large B cell lymphoma) cells; read-out: Growth inhibition GI50. How it is done: as §1
The subject of a further assay is RPMI-1788. Kind of assay: Cytotoxicity, CellTiter-Glo assay, normal RPMI-1788 (B lymphocytes). As to conditions: RPMI-1788 (normal B lymphocytes) cell line; read-out: Growth inhibition GI50. How it is done: as §1
Assay [1] has as its system all the tested cell lines. Kind of assay: Cytotoxicity against the whole panel (one normal, six solid, seven blood cancer cell lines). As to conditions: span over one normal, six solid and seven blood cancer cell lines; read-out: GI50 across all the tested cell lines. How it is done:
as §1

A further assay relates to solid cancer cells. In words: Cytotoxicity against solid cancer cells (SRB assay). As to conditions: span over solid cancer cell lines. How it is done:
as §1

Regarding `CC(=CC1C(=O)OC(C(C)C(O)C(C)C(O)C(C)C=CC=C(C)C(=O)NC2=CC(=O)c3cc(O)c(C)c(O)c3C2=O)C(C)C1O)C(=O)O` (centres unmarked) [Compound 1, salinisporamycin C], the GI50 with ACHN stood at 8.45 µM; in the assay on MDA-MB-231, 8.79 µM; in the assay with HCT-15 it was 9.25 µM; with PC-3 it was 8.46 µM; in the assay on NUGC-3 it was 7.41 µM; in the assay on NCI-H23, 8.05 µM. Besides, the GI50 in the assay with HL-60 is 9.96 µM; in the assay with Raji it was 5.37 µM; with K562, 7.17 µM; in the assay with RPMI-8402, 4.75 µM; with NALM6, 4.28 µM; in the assay on U266, 2.63 µM. Also, the results for the GI50 (with WSU-DLCL2; in the assay on RPMI-1788; in [1]) were 2.36 µM, 8.47 µM and 2.36 to 9.96 µM, respectively.

`C/C(=C/C=C/[C@H](C)[C@H](O)[C@@H](C)[C@@H](O)[C@@H](C)[C@@H]1O[C@@]2(C)CC[C@@H](O2)[C@H]1C)C(N)=O` [Compound 8, saliniketal A]: the 50% growth inhibitory concentration (GI50) in the assay with ACHN, in the assay with MDA-MB-231, in the assay on HCT-15, with PC-3, with NUGC-3 and in the assay with NCI-H23 was > 30 µM each time. In addition, the GI50 with HL-60, in the assay on Raji, with K562, in the assay with RPMI-8402, with NALM6 and in the assay with U266 was > 30 µM in each case. Besides, the GI50 (in the assay on WSU-DLCL2; in [1]) was > 30 µM throughout.

On to `CC1=CC=CC(C)C(O)C(C)C(O)C(C)C(O)C(C)C(O)C=COC2(C)Oc3c(C)cc4c(O)c(cc(OC(=O)CO)c4c3C2=O)NC1=O` (centres unmarked) [Compound 6, 8-deoxy-25-desacetyl-27-demethyl-rifamycin L], for which the GI50 with ACHN was > 30 µM; with MDA-MB-231 it was > 30 µM; in the assay with HCT-15, 24.2 µM; in the assay with PC-3 it was 26.6 µM; in the assay with NUGC-3, 29.8 µM; in the assay with NCI-H23, 21.8 µM. Also, the GI50 came out at 4.79 µM in the assay on HL-60; 12.1 µM in the assay with Raji; 9.53 µM in the assay on K562; 2.45 µM in the assay with RPMI-8402; 4.76 µM with NALM6; 2.3 µM in the assay on U266. Further, the GI50 in the assay with WSU-DLCL2 was 5.4 µM; with RPMI-1788 it was 4.93 µM; in the assay on solid cancer cells it was 21.8 to 29.8 µM.

As to `COc1cccc2c1C(=O)c1c(O)c3c(c(O)c1C2=O)C[C@@](O)(C(=O)CO)C[C@@H]3O[C@H]1C[C@H](N)[C@H](O)[C@H](C)O1` [Adr., Adriamycin, reference compound], the GI50 with ACHN turned out to be 0.168 µM; in the assay with MDA-MB-231 it was 0.159 µM; with HCT-15, 0.137 µM; in the assay on PC-3 it was 0.144 µM; in the assay with NUGC-3, 0.136 µM; in the assay on NCI-H23, 0.151 µM. For the same molecule, the GI50 is 0.021 µM in the assay with HL-60; 0.003 µM with Raji; 0.057 µM in the assay with K562; 0.014 µM in the assay with RPMI-8402; 0.002 µM with NALM6; 0.034 µM in the assay with U266. Also, the values for the GI50 in the assay with WSU-DLCL2 and in the assay with RPMI-1788 were 0.002 µM and 0.014 µM, respectively.

For the molecule `CC(=O)CC1OC(C(C)C(O)C(C)C(O)C(C)C=CC=C(C)C(N)=O)C(C)C1O` (centres unmarked) [Compound 7, salinifuran A], the GI50 in the assay with ACHN, with MDA-MB-231, in the assay with HCT-15, with PC-3, with NUGC-3 and in the assay on NCI-H23 was > 30 µM each time. The GI50 was > 30 µM with HL-60; > 30 µM with Raji; > 30 µM in the assay on K562; > 30 µM with RPMI-8402; 26.8 µM in the assay on NALM6; > 30 µM with U266. The GI50 with WSU-DLCL2 was > 30 µM.

The term GI50 denotes the concentration that inhibits growth by half.
